These are literature values, as cited in US20260191865A1, “CANCER THERAPY WITH CAPIVASERTIB AND FULVESTRANT” (AstraZeneca AB, priority 2022, published 2026).

In this data set the test system is ER-positive, HER2-negative advanced breast cancer.

Structures are written as SMILES. Like-named read-outs stand apart in the source and are kept apart here.

Regarding `NC1(C(=O)N[C@@H](CCO)c2ccc(Cl)cc2)CCN(c2ncnc3[nH]ccc23)CC1` [capivasertib, (S)-4-amino-N-(1-(4-chlorophenyl)-3-hydroxypropyl)-1-(7H-pyrrolo[2,3-d]pyrimidin-4-yl)piperidine-4-carboxamide], the “PFS and overall survival benefit” value (NGS-identified pathway non-altered subgroup) is listed as “no such benefit”; the “PFS and overall survival benefit” value (expanded (NGS) PI3K/AKT/PTEN pathway-altered subgroup, updated analysis) is “significant PFS and overall survival benefit”. Besides, the “progression-free survival (PFS)” value (capivasertib added to fulvestrant, postmenopausal women, AI-resistant, no previous CDK4/6 inhibitor) is “significant improvement”. Besides, under “original pathway-altered and original pathway non-altered subgroups, capivasertib added to fulvestrant”, the “benefit by original pathway status (secondary endpoint subgroup analysis)” value was “conferred benefit”.
